According to patent publication EP1311486B1, “USES OF THALIPORPHINE OR ITS DERIVATIVES IN TREATMENT OF CARDIAC DISEASES AND PREPARATION OF SAME” (Lotus Pharmaceutical Co., Ltd., priority 2000, dated 2002):
Marks after values point to notes of the source that are not given here.

Experiments:
[1] = system: delayed outward potassium current (IK); assay: Inhibition of delayed outward potassium current; details: guinea pigs
Protocol: Moreover, 3-10µM THP prolongs the action potential duration in the atria or ventricles of both rats and guinea pigs (data not shown).

[2] = Superoxide anion scavenging, xanthine/xanthine oxidase system; type: biochemical
[3] = system: guinea pig right ventricular strips; assay: Ouabain-induced arrhythmia in electrically driven right ventricular strips; details: 10-20µM after 0.6-0.8µM ouabain
Protocol: The arrhythmia was then induced 5-10 minutes after. 10-20µM THP or its derivatives were administered to reverse the ouabain-induced arrhythmia. 6-7.
Referring to FIGs. […] The arrhythmia is then induced 5-10 minutes after.

in vivo anesthetized rat = assay: Ischemia-induced arrhythmias in the anesthetized rat (30 minutes coronary occlusion)
Protocol: (§1) Myocardial ischemia was performed by a temporary tightening of the silk ligature around the left main coronary artery. Reperfusion was achieved by releasing the tension applied to the ligature (operated groups). Sham operated animals underwent all surgical procedures, apart from the fact that the silk, passing around the left coronary artery, was not tied (sham groups). Animals were infused with a bolus of THP (3.5x10^-7, 3.5x10^-6, 3.5x10^-5 g/kg), L-NAME (N^∞-nitro-L-arginine methyl ester; 1x10^-3 g/kg) or vehicle (dimethyl sulfoxide/ NaCl 0.9%, 1:10^3; v/v) from a jugular vein 15 minutes before coronary occlusion. The coronary artery was occluded for 30 minutes or 5 minutes followed by 30 minutes reperfusion and with the animals then divided randomly in the following groups: (1) sham + vehicle; (2) sham + THP (3.5x10^-5g/kg); (3) operated + vehicle; (4) operated + THP (3.5x10^-7 g/kg); (5) operated + THP (3.5x10^-6 g/kg); (6) operated + THP (3.5x10^-5 g/kg); (7) operated + L-NAME (1x10^-3 g/kg) + THP (3.5x10^-5 g/kg). Before and during the ischemia or reperfusion period, heart rate (HR), blood pressure (BP) and ECG changes were recorded. Ventricular ectopic activity was evaluated according to the diagnostic criteria advocated in the Lambeth Convention. The incidence and duration of ventricular tachyarrhythmias, including ventricular tachycardia (VT) and ventricular fibrillation (VF), in surviving animals was determined. The Mann-Whitney rank-sum test was used to analyze the differences in the duration of VT and VF between vehicle and drug treated groups. The BP and HR changes between vehicle and drug treated rats in the arrhythmia study were analyzed by ANOVA (analysis of variance) followed by Bonferroni's test. The difference in the percentage incidence of VT, VF and mortality rate was analyzed with a Chi-square test. Table 2 Effect of THP on ischemia-induced arrhythmias in the in vivo anesthetized rat
In ischemic condition, severe ventricular arrhythmias in the vehicle group begins after 6-7 minutes of coronary artery occlusion, peaks after 8-12 minutes, and normally subsides after approximately 15 minutes from initiation. The duration of VF is calculated to be 32.1±8.9 seconds, and the duration of VT is 36.8±8.8 seconds. […] Administration of THP at 3.5x10^-5 g/kg results in a decrease of the incidence of VT and VF to 10% and 0%, respectively (p<0.05). […] A particular important finding is the very effective reduction of mortality even at very low dose of THP 3.5x 10^-7 g/kg.

[4] = system: rats subjected to myocardial ischemia; assay: Blood pressure and heart rate in rats subjected to 30 minutes coronary ligation; type: in vivo; details: intravenous, 3.5x10^-6 or 3.5x10^-5 g/kg
Protocol: as §1
No significant difference can be seen among vehicle and drug groups (3.5x10^-6 or 3.5x10^-5 g/kg, THP).

plasma LDH = assay: Plasma LDH release at the end of ischemia or ischemia-reperfusion; type: in vivo, rats; details: for LDH (U/L) release, Ischemic / LDH (U/L) release, Reperfused: Operated
Protocol: as §1
(§2) Cellular damage was evaluated by measuring the plasma LDH. Arterial blood samples were drawn from the carotid catheter at the end of ischemia or ischemia-reperfusion, collected in heparinized tubes. The blood was kept at 4°C until it was centrifuged at 2000 xg for 15 minutes. The plasma was recovered and aliquots were used for determination of LDH activity with a commercial kit from Sigma. The deproteinized plasma samples were frozen and kept until analysis. NO was measured by the NO/ozone chemiluminescence technique described in Yanu F. et al., (1997) Clin. Chem. 43:657-662. The difference in plasma NO and LDH were analyzed statistically using unpaired Student's t-test. Table 5 Effects of THP on LDH (U/L) release
The biochemical indicator of cellular damage (LDH release) is determined in ischemia and the ischemia-reperfusion period. Low LDH activity can be seen in the control group (123.6±20.6 U/L) before occlusion. After the occlusion or occlusion-reperfusion, a large increase of the enzyme is found in the plasma of rats given operated-vehicle (500.5±81.4 U/L and 273.7±29.2 U/L, respectively). However, administration of THP attenuates LDH release with a dose-dependent manner during ischemia or ischemia-reperfusion (Table 5).

plasma NO = assay: Plasma NO release (NO/ozone chemiluminescence) after ischemia or ischemia-reperfusion; type: in vivo, rats; details: for NO (µmol/L) release, Ischemic / NO (µmol/L) release, Reperfused: Operated
Protocol: as §1, §2
Nitric oxide (NO) release is measured by the presence of nitrite (NO2^-) and nitrate (NO3^-) in the plasma from an animal with 30 minutes ischemia or 5 minutes followed by 30 minutes reperfusion. In sham animals, NO is measured to be 9.6±2.3 and 7.6±0.9µmol/L without and with THP pretreatment, respectively. In the operated animals, THP exerts a dramatically increase of plasma NO; at a dose of 3.5x10^-6 g/kg, there are 2- and 3.5-fold increases compared to that of the untreated (vehicle) ischemic or ischemic-reperfused animals, respectively (Table 6).

inward calcium current = details: Su MJ, et al., Eur. J. Pharmacol., 1994; cited from earlier work
[5] = Sham-operated, THP 3.5x10^-5 g/kg

With `COc1cc2c(cc1OC)-c1c(O)c(OC)cc3c1C(C2)N(C)CC3` (single isomer, unassigned; (+)) [THP, (+)-Thaliporphine] as the compound, how does the “delayed outward potassium current (IK)” value [1] read?
The value was “markedly inhibit”.

And the EC50 [2]?
Its EC50 is 12.6 µM.

And the “reversal of ouabain-induced arrhythmia” value [3]?
Its value is “effective in reversing the arrhythmia”.

And the “Mortality (%)” value (in vivo anesthetized rat; THP 3.5x10^-5 g/kg i.v.)?
Its value is 0%.

And the “VF Duration” value (in vivo anesthetized rat; THP 3.5x10^-5 g/kg i.v.)?
Its value is 0.0 ± 0.0 s.

And the “VF Incidence(%)” value (in vivo anesthetized rat; THP 3.5x10^-5 g/kg i.v.)?
Its value is 0%.

What about the “VT Duration” value (in vivo anesthetized rat; THP 3.5x10^-5 g/kg i.v.) of the same compound?
The value was 0.3 ± 0.3 s.

And the “VT Incidence(%)” value (in vivo anesthetized rat; THP 3.5x10^-5 g/kg i.v.)?
Its value is 10%.

And the “Mortality (%)” value (in vivo anesthetized rat; THP 3.5x10^-6 g/kg i.v.)?
Its value is 0%.

What about the “VF Duration” value (in vivo anesthetized rat; THP 3.5x10^-6 g/kg i.v.) of the same compound?
Its value is 0.5 ± 0.5 s.

What about the “VF Incidence(%)” value (in vivo anesthetized rat; THP 3.5x10^-6 g/kg i.v.) of the same compound?
Its value is 10%.

What about the “VT Duration” value (in vivo anesthetized rat; THP 3.5x10^-6 g/kg i.v.) of the same compound?
The value was 5.7 ± 3.3 s.

What about the “VT Incidence(%)” value (in vivo anesthetized rat; THP 3.5x10^-6 g/kg i.v.) of the same compound?
The value was 50* %.

And the “Mortality (%)” value (in vivo anesthetized rat; THP 3.5x10^-7 g/kg i.v.)?
The value was 0%.

And the “VF Duration” value (in vivo anesthetized rat; THP 3.5x10^-7 g/kg i.v.)?
Its value is 6.7 ± 4.9 s.

And the “VF Incidence(%)” value (in vivo anesthetized rat; THP 3.5x10^-7 g/kg i.v.)?
Its value is 20%.

What about the “VT Duration” value (in vivo anesthetized rat; THP 3.5x10^-7 g/kg i.v.) of the same compound?
The value was 16.1 ± 7.4 s.

And the “VT Incidence(%)” value (in vivo anesthetized rat; THP 3.5x10^-7 g/kg i.v.)?
Its value is 60%.

And the diastolic blood pressure [4]?
The diastolic blood pressure was “does not modify”.

And the “heart rate (HR)” value [4]?
The value was “does not modify”.

What about the systolic blood pressure [4] of the same compound?
The systolic blood pressure was “does not modify”.

What about the “LDH (U/L) release, Ischemic” value (plasma LDH; THP 3.5x10^-5 g/kg) of the same compound?
Its value is 132.2±33.2 U/L.

And the “LDH (U/L) release, Reperfused” value (plasma LDH; THP 3.5x10^-5 g/kg)?
Its value is 143.8±11.7 U/L.

What about the “LDH (U/L) release, Ischemic” value (plasma LDH; THP 3.5x10^-6 g/kg) of the same compound?
The value was 171.7±56.9 U/L.

What about the “LDH (U/L) release, Reperfused” value (plasma LDH; THP 3.5x10^-6 g/kg) of the same compound?
Its value is 219.6±31.0 U/L.

What about the “LDH (U/L) release, Ischemic” value (plasma LDH; THP 3.5x10^-7 g/kg) of the same compound?
The value was 349.5±55.0 U/L.

And the “LDH (U/L) release, Reperfused” value (plasma LDH; THP 3.5x10^-7 g/kg)?
The value was 202.2±30.4 U/L.

And the “LDH (U/L) release, Non-ischemic” value (plasma LDH; [5])?
Its value is 92.6±7.5 U/L.

What about the “increase of plasma NO compared to untreated (vehicle) ischemic animals” value (plasma NO; 3.5x10^-6 g/kg, ischemic) of the same compound?
Its value is 2 fold.

What about the “increase of plasma NO compared to untreated (vehicle) ischemic-reperfused animals” value (plasma NO; 3.5x10^-6 g/kg, ischemic-reperfused) of the same compound?
The value was 3.5 fold.

And the “NO (µmol/L) release, Ischemic” value (plasma NO; THP 3.5x10^-5 g/kg)?
Its value is 19.1 ± 5.5 µmol/L.

And the “NO (µmol/L) release, Reperfused” value (plasma NO; THP 3.5x10^-5 g/kg)?
The value was 30.4 ± 1.9 µmol/L.

And the “NO (µmol/L) release, Ischemic” value (plasma NO; THP 3.5x10^-6 g/kg)?
Its value is 19.4 ± 4.7 µmol/L.

And the “NO (µmol/L) release, Reperfused” value (plasma NO; THP 3.5x10^-6 g/kg)?
The value was 28.4 ± 4.3 µmol/L.

And the “NO (µmol/L) release, Ischemic” value (plasma NO; THP 3.5x10^-7 g/kg)?
Its value is 6.6 ± 0.6 µmol/L.

What about the “NO (µmol/L) release, Reperfused” value (plasma NO; THP 3.5x10^-7 g/kg) of the same compound?
Its value is 8.0 ± 1.7 µmol/L.

What about the “NO (µmol/L) release, Non-ischemic” value (plasma NO; [5]) of the same compound?
The value was 7.6 ± 0.9 µmol/L.

And the inward calcium current (inward calcium current)?
The inward calcium current was “enhance”.
